Test results: patent publication US20230085307A1, “PYRIDAZINONE COMPOUND AND HERBICIDE” (NISSAN CHEMICAL CORPORATION, priority 2019, published 2023)

Key:
southern crabgrass [1] = test: Test Example 5: herbicidal effect by foliage application, plastic box (Table 20, symbol F); assay type: in vivo, southern crabgrass (Digitaria ciliaris); conditions: 320 g/ha, foliage application after 14-day growth, evaluated three weeks after application
How it was run: (§1)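 Plants sown in sterilized diluvial soil and grown 14 days in a greenhouse at 25° C to 30° C, then sprayed on the foliage with the compound's emulsion diluted in water to a predetermined herbicide amount. Injury to weeds and crops scored three weeks after application on a visual rating scale.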

lambsquarters [2] = test: Test Example 5: herbicidal effect by foliage application, plastic box (Table 20, symbol O); assay type: in vivo, lambsquarters (Chenopodium album); conditions: 320 g/ha, foliage application after 14-day growth, evaluated three weeks after application
How it was run: as §1

barnyard grass [3] = test: Test Example 3: herbicidal effect by foliage application, Wagner pot (Table 18, symbol H); assay type: in vivo, barnyard grass (Echinochloa crus-galli); conditions: 320 g/ha
How it was run: (§2)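 Plants were sown in alluvial soil held under 0.1–0.5 cm standing water and grown 14 days in a greenhouse at 25–30 °C. An emulsifiable formulation, water-diluted to the set dose, was then sprayed onto the foliage, and effects were scored three weeks later using previously defined criteria.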

windgrass [4] = test: Test Example 5: herbicidal effect by foliage application, plastic box (Table 20, symbol L); assay type: in vivo, windgrass (Apera spica-venti); conditions: 320 g/ha, foliage application after 14-day growth, evaluated three weeks after application
How it was run: as §1

lambsquarters [5] = test: Test Example 4: herbicidal effect by soil treatment (Table 19, symbol O); assay type: in vivo, lambsquarters (Chenopodium album); conditions: amount of applied herbicide 320 g/ha
How it was run: (§3)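 Three weeks of greenhouse growth at 25° C. to 30° C. followed a uniform surface spray of water-diluted emulsion at a predetermined herbicide amount. Seeds had been sown beforehand under about 1.5 cm of sterilized diluvial soil. Grading followed criteria set out in an earlier test.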

rice flat sedge = test: Test Example 3: herbicidal effect by foliage application, Wagner pot (Table 18, symbol E); assay type: in vivo, rice flat sedge (Cyperus iria); conditions: 320 g/ha
How it was run: as §2

persian speedwell [6] = test: Test Example 4: herbicidal effect by soil treatment (Table 19, symbol R); assay type: in vivo, Persian speedwell (Veronica persica); conditions: amount of applied herbicide 320 g/ha
How it was run: as §3

velvetleaf [7] = test: Test Example 4: herbicidal effect by soil treatment (Table 19, symbol M); assay type: in vivo, velvetleaf (Abutilon theophrasti); conditions: amount of applied herbicide 320 g/ha
How it was run: as §3

chickweed [8] = test: Test Example 4: herbicidal effect by soil treatment (Table 19, symbol P); assay type: in vivo, common chickweed (Stellaria media); conditions: amount of applied herbicide 320 g/ha
How it was run: as §3

wild oat [9] = test: Test Example 4: herbicidal effect by soil treatment (Table 19, symbol I); assay type: in vivo, wild oat (Avena fatua); conditions: amount of applied herbicide 320 g/ha
How it was run: as §3

barnyard grass [10] = test: Test Example 4: herbicidal effect by soil treatment (Table 19, symbol H); assay type: in vivo, barnyard grass (Echinochloa crus-galli); conditions: amount of applied herbicide 320 g/ha
How it was run: as §3

persian speedwell [11] = test: Test Example 5: herbicidal effect by foliage application, plastic box (Table 20, symbol R); assay type: in vivo, Persian speedwell (Veronica persica); conditions: 320 g/ha, foliage application after 14-day growth, evaluated three weeks after application
How it was run: as §1

Italian ryegrass [12] = test: Test Example 5: herbicidal effect by foliage application, plastic box (Table 20, symbol K); assay type: in vivo, Italian ryegrass (Lolium multiflorum); conditions: 320 g/ha, foliage application after 14-day growth, evaluated three weeks after application
How it was run: as §1

southern crabgrass [13] = test: Test Example 4: herbicidal effect by soil treatment (Table 19, symbol F); assay type: in vivo, southern crabgrass (Digitaria ciliaris); conditions: amount of applied herbicide 320 g/ha
How it was run: as §3

Italian ryegrass [14] = test: Test Example 4: herbicidal effect by soil treatment (Table 19, symbol K); assay type: in vivo, Italian ryegrass (Lolium multiflorum); conditions: amount of applied herbicide 320 g/ha
How it was run: as §3

redroot pigweed [15] = test: Test Example 4: herbicidal effect by soil treatment (Table 19, symbol N); assay type: in vivo, redroot pigweed (Amaranthus retroflexus); conditions: amount of applied herbicide 320 g/ha
How it was run: as §3

chickweed [16] = test: Test Example 5: herbicidal effect by foliage application, plastic box (Table 20, symbol P); assay type: in vivo, common chickweed (Stellaria media); conditions: 320 g/ha, foliage application after 14-day growth, evaluated three weeks after application
How it was run: as §1

green foxtail [17] = test: Test Example 5: herbicidal effect by foliage application, plastic box (Table 20, symbol G); assay type: in vivo, green foxtail (Setaria viridis); conditions: 320 g/ha, foliage application after 14-day growth, evaluated three weeks after application
How it was run: as §1

velvetleaf [18] = test: Test Example 5: herbicidal effect by foliage application, plastic box (Table 20, symbol M); assay type: in vivo, velvetleaf (Abutilon theophrasti); conditions: 320 g/ha, foliage application after 14-day growth, evaluated three weeks after application
How it was run: as §1

blackgrass [19] = test: Test Example 4: herbicidal effect by soil treatment (Table 19, symbol J); assay type: in vivo, blackgrass (Alopecurus myosuroides); conditions: amount of applied herbicide 320 g/ha
How it was run: as §3

Chinese sprangletop = test: Test Example 3: herbicidal effect by foliage application, Wagner pot (Table 18, symbol D); assay type: in vivo, chinese sprangletop (Leptochloa chinensis); conditions: 320 g/ha
How it was run: as §2

wild oat [20] = test: Test Example 5: herbicidal effect by foliage application, plastic box (Table 20, symbol I); assay type: in vivo, wild oat (Avena fatua); conditions: 320 g/ha, foliage application after 14-day growth, evaluated three weeks after application
How it was run: as §1

green foxtail [21] = test: Test Example 4: herbicidal effect by soil treatment (Table 19, symbol G); assay type: in vivo, green foxtail (Setaria viridis); conditions: amount of applied herbicide 320 g/ha
How it was run: as §3

redroot pigweed [22] = test: Test Example 5: herbicidal effect by foliage application, plastic box (Table 20, symbol N); assay type: in vivo, redroot pigweed (Amaranthus retroflexus); conditions: 320 g/ha, foliage application after 14-day growth, evaluated three weeks after application
How it was run: as §1

blackgrass [23] = test: Test Example 5: herbicidal effect by foliage application, plastic box (Table 20, symbol J); assay type: in vivo, blackgrass (Alopecurus myosuroides); conditions: 320 g/ha, foliage application after 14-day growth, evaluated three weeks after application
How it was run: as §1

windgrass [24] = test: Test Example 4: herbicidal effect by soil treatment (Table 19, symbol L); assay type: in vivo, windgrass (Apera spica-venti); conditions: amount of applied herbicide 320 g/ha
How it was run: as §3

barnyard grass [25] = test: Test Example 5: herbicidal effect by foliage application, plastic box (Table 20, symbol H); assay type: in vivo, barnyard grass (Echinochloa crus-galli); conditions: 320 g/ha, foliage application after 14-day growth, evaluated three weeks after application
How it was run: as §1

SMILES | herbicidal effect on F: southern crabgrass (evaluation grade 0-5) (southern crabgrass [1]) | herbicidal effect on O: lambsquarters (evaluation grade 0-5) (lambsquarters [2]) | herbicidal effect on barnyard grass (H) (barnyard grass [3]) | herbicidal effect on L: windgrass (evaluation grade 0-5) (windgrass [4]) | Herbicidal effect by soil treatment, O: lambsquarters (lambsquarters [5]) | herbicidal effect on rice flat sedge (E) (rice flat sedge) | Herbicidal effect by soil treatment, R: persian speedwell (persian speedwell [6]) | Herbicidal effect by soil treatment, M: velvetleaf (velvetleaf [7]) | Herbicidal effect by soil treatment, P: chickweed (chickweed [8]) | Herbicidal effect by soil treatment, I: wild oat (wild oat [9]) | Herbicidal effect by soil treatment, H: barnyard grass (barnyard grass [10]) | herbicidal effect on R: persian speedwell (evaluation grade 0-5) (persian speedwell [11]) | herbicidal effect on K: Italian ryegrass (evaluation grade 0-5) (Italian ryegrass [12]) | Herbicidal effect by soil treatment, F: southern crabgrass (southern crabgrass [13]) | Herbicidal effect by soil treatment, K: Italian ryegrass (Italian ryegrass [14]) | Herbicidal effect by soil treatment, N: redroot pigweed (redroot pigweed [15]) | herbicidal effect on P: chickweed (evaluation grade 0-5) (chickweed [16]) | herbicidal effect on G: green foxtail (evaluation grade 0-5) (green foxtail [17]) | herbicidal effect on M: velvetleaf (evaluation grade 0-5) (velvetleaf [18]) | Herbicidal effect by soil treatment, J: blackgrass (blackgrass [19]) | also measured
COc1ccccc1-c1sc2cc(S(C)(=O)=O)ccc2c1-c1c(O)c(C)nn(C)c1=O [3-165] | 5 (Herbicidal rate of 90% or more (almost completely withered)) | 4 (Herbicidal rate of 70% or more and less than 90%) | 5 (Herbicidal rate of 90% or more (almost completely withered)) | 5 (Herbicidal rate of 90% or more (almost completely withered)) | 0 (Herbicidal rate of 5% or less (almost no effect)) | 3 (Herbicidal rate of 40% or more and less than 70%) | 5 (Herbicidal rate of 90% or more (almost completely withered)) | 1 (Herbicidal rate of 5% or more and less than 20%) | 5 (Herbicidal rate of 90% or more (almost completely withered)) | 0 (Herbicidal rate of 5% or less (almost no effect)) | 3 (Herbicidal rate of 40% or more and less than 70%) | 5 (Herbicidal rate of 90% or more (almost completely withered)) | 4 (Herbicidal rate of 70% or more and less than 90%) | 5 (Herbicidal rate of 90% or more (almost completely withered)) | 4 (Herbicidal rate of 70% or more and less than 90%) | 4 (Herbicidal rate of 70% or more and less than 90%) | 5 (Herbicidal rate of 90% or more (almost completely withered)) | 4 (Herbicidal rate of 70% or more and less than 90%) | 5 (Herbicidal rate of 90% or more (almost completely withered)) | 3 (Herbicidal rate of 40% or more and less than 70%) | herbicidal effect on Chinese sprangletop (D) (Chinese sprangletop): 4 (Herbicidal rate of 70% or more and less than 90%); herbicidal effect on I: wild oat (evaluation grade 0-5) (wild oat [20]): 4 (Herbicidal rate of 70% or more and less than 90%); Herbicidal effect by soil treatment, G: green foxtail (green foxtail [21]): 3 (Herbicidal rate of 40% or more and less than 70%); herbicidal effect on N: redroot pigweed (evaluation grade 0-5) (redroot pigweed [22]): 4 (Herbicidal rate of 70% or more and less than 90%); herbicidal effect on J: blackgrass (evaluation grade 0-5) (blackgrass [23]): 4 (Herbicidal rate of 70% or more and less than 90%); Herbicidal effect by soil treatment, L: windgrass (windgrass [24]): 3 (Herbicidal rate of 40% or more and less than 70%); herbicidal effect on H: barnyard grass (evaluation grade 0-5) (barnyard grass [25]): 5 (Herbicidal rate of 90% or more (almost completely withered))
CCCC(=O)Oc1c(C)nn(C)c(=O)c1-c1c(-c2ccc(F)cc2OC)sc2c(F)cccc12 [4-012] | 2 (Herbicidal rate of 20% or more and less than 40%) | 2 (Herbicidal rate of 20% or more and less than 40%) | 5 (Herbicidal rate of 90% or more (almost completely withered)) | 1 (Herbicidal rate of 5% or more and less than 20%) | 1 (Herbicidal rate of 5% or more and less than 20%) | 5 (Herbicidal rate of 90% or more (almost completely withered)) | 0 (Herbicidal rate of 5% or less (almost no effect)) | 1 (Herbicidal rate of 5% or more and less than 20%) | 0 (Herbicidal rate of 5% or less (almost no effect)) | 0 (Herbicidal rate of 5% or less (almost no effect)) | 0 (Herbicidal rate of 5% or less (almost no effect)) | 4 (Herbicidal rate of 70% or more and less than 90%) | 3 (Herbicidal rate of 40% or more and less than 70%) | 0 (Herbicidal rate of 5% or less (almost no effect)) | 0 (Herbicidal rate of 5% or less (almost no effect)) | 3 (Herbicidal rate of 40% or more and less than 70%) | 5 (Herbicidal rate of 90% or more (almost completely withered)) | 5 (Herbicidal rate of 90% or more (almost completely withered)) | 3 (Herbicidal rate of 40% or more and less than 70%) | 0 (Herbicidal rate of 5% or less (almost no effect)) | herbicidal effect on Chinese sprangletop (D) (Chinese sprangletop): 3 (Herbicidal rate of 40% or more and less than 70%); herbicidal effect on I: wild oat (evaluation grade 0-5) (wild oat [20]): 0 (Herbicidal rate of 5% or less (almost no effect)); Herbicidal effect by soil treatment, G: green foxtail (green foxtail [21]): 0 (Herbicidal rate of 5% or less (almost no effect)); herbicidal effect on N: redroot pigweed (evaluation grade 0-5) (redroot pigweed [22]): 4 (Herbicidal rate of 70% or more and less than 90%); herbicidal effect on J: blackgrass (evaluation grade 0-5) (blackgrass [23]): 0 (Herbicidal rate of 5% or less (almost no effect)); Herbicidal effect by soil treatment, L: windgrass (windgrass [24]): 0 (Herbicidal rate of 5% or less (almost no effect)); herbicidal effect on H: barnyard grass (evaluation grade 0-5) (barnyard grass [25]): 3 (Herbicidal rate of 40% or more and less than 70%)
